# Laboratory results from ChEMBL document CHEMBL1201862, “PubChem BioAssay data set” (2004).
#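 96-well plates; 48 h exposure; 5 concentrations. Endpoints by linear interpolation between flanking doses. Not reached: highest tested concentration assigned. The concentration for 50% growth inhibition is given as GI50.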 Active and inactive are the calls of the source. Cut-off read from the data, not from the text of the source: active = GI50 up to about 1.1 µM and inactive = higher.
# What was measured:
# Experiment in all cases: NCI anticancer screen, dose series, 48 h
# [1] = test system: TK-10
# [2] = test system: MDA-MB-231
# [3] = test system: NCI-H226
# [4] = test system: OVCAR-8
# [5] = test system: K562
# [6] = test system: HOP-62
# [7] = test system: SK-MEL-2
# [8] = test system: SNB-19
# [9] = test system: SF-268
# [10] = test system: SK-OV-3
# [11] = test system: M14
# [12] = test system: EKVX
# [13] = test system: U-251
# [14] = test system: HCT-15
# [15] = test system: IGROV-1
# [16] = test system: KM12
# [17] = test system: SN12C
# [18] = test system: ACHN
# [19] = test system: UO-31
# [20] = test system: UACC-257
Structure (SMILES),GI50 [1],GI50 [2],GI50 [3],GI50 [4],GI50 [5],GI50 [6],GI50 [7],GI50 [8],GI50 [9],GI50 [10],GI50 [11],GI50 [12],GI50 [13],GI50 [14] [µM],GI50 [15],GI50 [16],GI50 [17],GI50 [18],GI50 [19],GI50 [20]
c1ccc2c(c1)ncn2CCn1ccnc1,> 100 µM (inactive),> 100 µM (inactive),> 100 µM (inactive),> 100 µM (inactive),> 100 µM (inactive),> 100 µM (inactive),> 100 µM (inactive),> 100 µM (inactive),> 100 µM (inactive),> 100 µM (inactive),> 100 µM (inactive),> 100 µM (inactive),> 100 µM (inactive),> 100,> 100 µM (inactive),> 100 µM (inactive),> 100 µM (inactive),> 100 µM (inactive),> 100 µM (inactive),–
CC1(C)[C@@H](Cn2nnc3c(N)ncnc32)CC[C@@]1(C)CO,> 100 µM (inactive),> 100 µM (inactive),> 100 µM (inactive),–,> 100 µM (inactive),> 100 µM (inactive),> 100 µM (inactive),> 100 µM (inactive),> 100 µM (inactive),> 100 µM (inactive),> 100 µM (inactive),> 100 µM (inactive),> 100 µM (inactive),> 100,–,> 100 µM (inactive),> 100 µM (inactive),> 100 µM (inactive),> 100 µM (inactive),> 100 µM (inactive)
C=C1[C@@](C)([C@@H]2CCCS2)[C@H]2C(C)=C[C@]1(C)n1c(=O)n(-c3ccccc3)c(=O)n12,> 100 µM (inactive),> 100 µM (inactive),> 100 µM (inactive),–,–,> 100 µM (inactive),> 100 µM (inactive),> 100 µM (inactive),> 100 µM (inactive),> 100 µM (inactive),> 100 µM (inactive),> 100 µM (inactive),> 100 µM (inactive),> 100,56.2 µM (inactive),> 100 µM (inactive),> 100 µM (inactive),> 100 µM (inactive),> 100 µM (inactive),> 100 µM (inactive)
Cc1ccc2c(c1)Nc1ccccc1P2(=O)O,> 100 µM (inactive),> 100 µM (inactive),> 100 µM (inactive),> 100 µM (inactive),> 100 µM (inactive),> 100 µM (inactive),> 100 µM (inactive),> 100 µM (inactive),> 100 µM (inactive),> 100 µM (inactive),> 100 µM (inactive),> 100 µM (inactive),> 100 µM (inactive),> 100,> 100 µM (inactive),> 100 µM (inactive),> 100 µM (inactive),> 100 µM (inactive),> 100 µM (inactive),> 100 µM (inactive)
N#CCCN(CCNc1ccccc1)C(=O)Nc1ccc(NC(=O)N(CCC#N)CCNc2ccccc2)cc1,> 61.4 µM (inactive),> 100 µM (inactive),> 73.5 µM (inactive),> 73.8 µM (inactive),> 100 µM (inactive),> 47 µM (inactive),> 100 µM (inactive),> 100 µM (inactive),> 47.4 µM (inactive),> 65.6 µM (inactive),> 100 µM (inactive),> 100 µM (inactive),> 100 µM (inactive),> 60.3,–,> 96.6 µM (inactive),> 100 µM (inactive),> 100 µM (inactive),> 100 µM (inactive),> 100 µM (inactive)
OC1CN2CCS[C@H]2C(O)C1O (stereo partly specified),> 100 µM (inactive),> 100 µM (inactive),> 100 µM (inactive),> 100 µM (inactive),> 100 µM (inactive),> 100 µM (inactive),> 100 µM (inactive),> 100 µM (inactive),> 100 µM (inactive),> 100 µM (inactive),> 100 µM (inactive),> 100 µM (inactive),> 100 µM (inactive),> 100,> 100 µM (inactive),> 100 µM (inactive),–,> 100 µM (inactive),> 100 µM (inactive),> 100 µM (inactive)
COCOc1c(C(O[Si](C)(C)C(C)(C)C)c2cnc(Sc3ccccc3)n2C)ccc(OC)c1OC (stereo unspecified),4.28 µM (inactive),1.66 µM (inactive),1.85 µM (inactive),1.43 µM (inactive),2.75 µM (inactive),1.66 µM (inactive),1.31 µM (inactive),2.14 µM (inactive),1.64 µM (inactive),2.05 µM (inactive),–,2.53 µM (inactive),1.64 µM (inactive),1.94,1.97 µM (inactive),1.92 µM (inactive),1.78 µM (inactive),2.42 µM (inactive),1.83 µM (inactive),2.25 µM (inactive)
CCC1CCN/C(=N/S(=O)(=O)c2cc(C)c(Cl)cc2S)N1 (stereo unspecified),37.7 µM (inactive),44.8 µM (inactive),26.7 µM (inactive),19.8 µM (inactive),32.4 µM (inactive),24.3 µM (inactive),26.4 µM (inactive),30.2 µM (inactive),57 µM (inactive),40.5 µM (inactive),35.7 µM (inactive),32.5 µM (inactive),13.8 µM (inactive),38.5,24.2 µM (inactive),–,43.3 µM (inactive),34.6 µM (inactive),36.3 µM (inactive),42.9 µM (inactive)
